Measurements taken from PubChem BioAssay AID248 (DTP/NCI, 2004).
Several values for one entry are separate records, joined by “and”; a condition that tells them apart may be missing. Equal values may be shown once. Inconclusive results and toxic doses are left out.

System: L1210 leukemia ip in BDF1 mice, survival T/C
Assay: NCI In Vivo Anticancer Drug Screen. Data for tumor model L1210 Leukemia (intraperitoneal) in B6D2F1 (BDF1) mice
Details: endpoint: mean survival time, higher = longer survival
Outline: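 In this screen, tumor-bearing mice given compound are compared to those given vehicle, and their survival values are reported as a treated-to-control quotient.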

[1] = dose: 100.0 mg/kg/injection, schedule: Q01DX001 (ip), vehicle: saline
[2] = dose: 200.0 mg/kg/injection, schedule: Q01DX001 (ip), vehicle: saline
[3] = dose: 100.0 mg/kg/injection, schedule: Q01DX001 (ip), vehicle: carboxymethylcellulose (CMC)
[4] = dose: 200.0 mg/kg/injection, schedule: Q01DX001 (ip), vehicle: carboxymethylcellulose (CMC)
[5] = dose: 400.0 mg/kg/injection, schedule: Q01DX001 (ip), vehicle: carboxymethylcellulose (CMC)
[6] = dose: 100.0 mg/kg/injection, schedule: Q01DX001 (ip), vehicle: Klucel (hydroxypropylcellulose) (HPC)
[7] = dose: 200.0 mg/kg/injection, schedule: Q01DX001 (ip), vehicle: Klucel (hydroxypropylcellulose) (HPC)
[8] = dose: 400.0 mg/kg/injection, schedule: Q01DX001 (ip), vehicle: Klucel (hydroxypropylcellulose) (HPC)

## CP1(=O)CCC=C1C(=O)O (stereo unspecified)
[1]
  T/C: 95 % of control
[2]
  T/C: 95 % of control
dose: 400.0 mg/kg/injection, schedule: Q01DX001 (ip), vehicle: saline
  T/C: 95 % of control

## CNC(=O)O/N=C(\C(=N\OC(=O)NC)c1ccccc1)c1ccccc1
[3]
  T/C: 96 % of control
[4]
  T/C: 96 % of control
[5]
  T/C: 96 % of control

## O=C(O)c1cc2c(Br)cccc2c2cc(C(F)(F)F)ccc12
dose: 100.0 mg/kg/injection, schedule: Q04DX003 (ip), vehicle: saline with Tween-80
  T/C: 97 % of control
dose: 200.0 mg/kg/injection, schedule: Q04DX003 (ip), vehicle: saline with Tween-80
  T/C: 113 % of control

## Cc1c(N)c(C)c(F)c(-c2c(N)c(C)c(N)c(C)c2F)c1N
[6]
  T/C: 92 % of control
[7]
  T/C: 97 % of control
[8]
  T/C: 104 % of control

## COc1ccc(-n2c(=S)[nH]c3ccccc3c2=O)cc1
dose: 100.0 mg/kg/injection, schedule: Q01DX009 (ip), vehicle: other
  T/C: 107 % of control
dose: 100.0 mg/kg/injection, schedule: Q04DX003 (ip), vehicle: saline
  T/C: 95 % of control
dose: 200.0 mg/kg/injection, schedule: Q01DX009 (ip), vehicle: other
  T/C: 96 % of control
dose: 200.0 mg/kg/injection, schedule: Q04DX003 (ip), vehicle: saline
  T/C: 91 % of control
dose: 400.0 mg/kg/injection, schedule: Q01DX009 (ip), vehicle: other
  T/C: 102 % of control
dose: 400.0 mg/kg/injection, schedule: Q04DX003 (ip), vehicle: saline
  T/C: 91 % of control

## COC1CCC(NC(=O)N(CCCl)N=O)CC1 (stereo unspecified)
dose: 3.5 mg/kg/injection, schedule: Q01DX001 (ip), vehicle: saline with Tween-80
  T/C: 106 % of control
dose: 5.0 mg/kg/injection, schedule: Q01DX001 (ip), vehicle: saline with Tween-80
  T/C: 110 % of control
dose: 8.0 mg/kg/injection, schedule: Q01DX001 (ip), vehicle: saline with Tween-80
  T/C: 124 % of control
dose: 16.0 mg/kg/injection, schedule: Q01DX001 (ip), vehicle: saline with Tween-80
  T/C: 155 % of control and 266 % of control
dose: 18.0 mg/kg/injection, schedule: Q01DX001 (ip), vehicle: saline with Tween-80
  T/C: 221 % of control
dose: 24.0 mg/kg/injection, schedule: Q01DX001 (ip), vehicle: saline with Tween-80
  T/C: 592 % of control
dose: 26.0 mg/kg/injection, schedule: Q01DX001 (ip), vehicle: saline with Tween-80
  T/C: 302 % of control
dose: 35.0 mg/kg/injection, schedule: Q01DX001 (ip), vehicle: saline with Tween-80
  T/C: 404 % of control
dose: 40.0 mg/kg/injection, schedule: Q01DX001 (ip), vehicle: saline with Tween-80
  T/C: 340 % of control
dose: 53.0 mg/kg/injection, schedule: Q01DX001 (ip), vehicle: saline with Tween-80
  T/C: 193 % of control
dose: 60.0 mg/kg/injection, schedule: Q01DX001 (ip), vehicle: saline with Tween-80
  T/C: 294 % of control

## O=C1CCS(=O)O1 (stereo unspecified)
dose: 100.0 mg/kg/injection, schedule: Q04DX002 (ip), vehicle: Klucel (hydroxypropylcellulose) (HPC)
  T/C: 100 % of control
dose: 200.0 mg/kg/injection, schedule: Q04DX002 (ip), vehicle: Klucel (hydroxypropylcellulose) (HPC)
  T/C: 95 % of control
dose: 400.0 mg/kg/injection, schedule: Q04DX002 (ip), vehicle: Klucel (hydroxypropylcellulose) (HPC)
  T/C: 89 % of control

## CCCOc1cccc(N)c1
dose: 50.0 mg/kg/injection, schedule: Q01DX001 (ip), vehicle: saline
  T/C: 96 % of control
[1]
  T/C: 91 % of control
[2]
  T/C: 93 % of control

## CN(C)C(=O)Nc1nc2cc(Cl)c(Cl)cc2[nH]1
[6]
  T/C: 98 % of control
[7]
  T/C: 100 % of control
[8]
  T/C: 94 % of control

## O=C1NC(=O)C(O)(C2(O)C(=O)NC(=O)NC2=O)C(=O)N1
dose: 75.0 mg/kg/injection, schedule: Q01DX001 (ip), vehicle: carboxymethylcellulose (CMC)
  T/C: 101 % of control
dose: 100.0 mg/kg/injection, schedule: Q01DX009 (ip), vehicle: saline with Tween-80
  T/C: 106 % of control
dose: 150.0 mg/kg/injection, schedule: Q01DX001 (ip), vehicle: carboxymethylcellulose (CMC)
  T/C: 102 % of control
dose: 200.0 mg/kg/injection, schedule: Q01DX009 (ip), vehicle: saline with Tween-80
  T/C: 92 % of control
dose: 400.0 mg/kg/injection, schedule: Q01DX009 (ip), vehicle: saline with Tween-80
  T/C: 88 % of control

## O=C(N/N=C\c1ccc(N(CCCl)CCCl)cc1)c1ccccn1
dose: 50.0 mg/kg/injection, schedule: Q01DX001 (ip), vehicle: carboxymethylcellulose (CMC)
  T/C: 108 % of control
[3]
  T/C: 108 % of control
[4]
  T/C: 103 % of control
[5]
  T/C: 100 % of control
